Assay results published in patent US10858339B2, “Aryl cyclopropyl-amino-isoquinolinyl amide compounds” (priority 2017, dated 2020).
pIC50, pKi: −log10 of the molar value. Counter-ions that a name gives are not always drawn. Like-named read-outs stand apart in the source and are kept apart here.

Key:
[1] = molecular target: T1, JAK3 (Homo sapiens, UniProt P52333); test: JAK kinase assay, JAK3 enzyme; type: biochemical
T1 sequence (P52333 1-1124): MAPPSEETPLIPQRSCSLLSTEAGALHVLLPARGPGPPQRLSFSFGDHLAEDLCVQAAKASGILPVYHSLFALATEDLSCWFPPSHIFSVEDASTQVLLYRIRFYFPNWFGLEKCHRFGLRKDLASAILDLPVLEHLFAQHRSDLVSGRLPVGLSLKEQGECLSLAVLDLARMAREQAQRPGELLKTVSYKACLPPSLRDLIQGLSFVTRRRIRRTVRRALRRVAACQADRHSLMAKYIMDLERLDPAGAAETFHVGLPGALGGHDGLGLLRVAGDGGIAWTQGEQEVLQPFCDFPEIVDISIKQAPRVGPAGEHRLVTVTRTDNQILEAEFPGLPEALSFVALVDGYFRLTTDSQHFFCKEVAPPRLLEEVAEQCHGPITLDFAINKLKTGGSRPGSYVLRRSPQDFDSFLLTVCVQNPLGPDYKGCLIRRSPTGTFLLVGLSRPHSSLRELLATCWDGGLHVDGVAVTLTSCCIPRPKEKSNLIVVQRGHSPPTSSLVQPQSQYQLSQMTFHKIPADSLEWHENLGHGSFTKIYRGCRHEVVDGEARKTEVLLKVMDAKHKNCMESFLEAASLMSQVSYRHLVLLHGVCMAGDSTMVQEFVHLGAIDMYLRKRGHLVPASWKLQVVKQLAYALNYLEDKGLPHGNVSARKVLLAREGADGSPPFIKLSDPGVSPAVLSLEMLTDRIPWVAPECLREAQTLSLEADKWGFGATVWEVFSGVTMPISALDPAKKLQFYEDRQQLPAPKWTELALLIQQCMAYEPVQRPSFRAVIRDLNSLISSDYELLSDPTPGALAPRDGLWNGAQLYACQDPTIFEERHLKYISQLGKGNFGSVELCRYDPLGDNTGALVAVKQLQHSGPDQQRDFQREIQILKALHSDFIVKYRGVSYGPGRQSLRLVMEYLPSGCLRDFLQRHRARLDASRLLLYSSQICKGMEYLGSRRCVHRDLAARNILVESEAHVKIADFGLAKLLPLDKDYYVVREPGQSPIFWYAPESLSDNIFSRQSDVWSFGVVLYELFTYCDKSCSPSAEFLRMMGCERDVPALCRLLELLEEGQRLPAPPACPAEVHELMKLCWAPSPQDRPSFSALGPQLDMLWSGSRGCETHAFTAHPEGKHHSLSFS

[2] = molecular target: T2, IKKb (Homo sapiens, UniProt O14920); test: IKKb kinase activity; type: biochemical; settings: Table 17
T2 sequence (O14920 1-756): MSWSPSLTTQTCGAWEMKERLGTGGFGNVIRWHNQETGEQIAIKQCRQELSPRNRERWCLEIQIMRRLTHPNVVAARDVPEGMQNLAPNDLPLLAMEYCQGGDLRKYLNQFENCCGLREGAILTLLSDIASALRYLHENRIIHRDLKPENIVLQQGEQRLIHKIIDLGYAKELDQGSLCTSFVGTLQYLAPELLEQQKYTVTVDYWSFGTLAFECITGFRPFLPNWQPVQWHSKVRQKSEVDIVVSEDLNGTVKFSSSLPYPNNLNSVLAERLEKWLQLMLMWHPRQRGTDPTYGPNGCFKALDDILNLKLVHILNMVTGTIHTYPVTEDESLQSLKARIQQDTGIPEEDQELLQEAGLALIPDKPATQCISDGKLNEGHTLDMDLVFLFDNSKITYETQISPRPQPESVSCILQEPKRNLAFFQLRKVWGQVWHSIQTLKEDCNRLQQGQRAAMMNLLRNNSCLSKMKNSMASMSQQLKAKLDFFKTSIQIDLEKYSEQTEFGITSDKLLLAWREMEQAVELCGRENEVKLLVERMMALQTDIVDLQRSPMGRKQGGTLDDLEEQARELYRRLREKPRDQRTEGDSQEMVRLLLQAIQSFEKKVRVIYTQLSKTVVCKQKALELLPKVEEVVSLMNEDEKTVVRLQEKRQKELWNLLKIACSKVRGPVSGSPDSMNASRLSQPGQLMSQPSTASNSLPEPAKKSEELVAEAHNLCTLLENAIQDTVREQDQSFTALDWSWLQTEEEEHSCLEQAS

[3] = test system: Porcine Trabecular Meshwork cells (PTM); test: PTM-HTM assay, actin fiber length in PTM cells; type: cell-based; settings: Sus scrofa, read-out: PTM
Experimental: Porcine Trabecular Meshwork cells (PTM) were isolated from freshly obtained enucleated porcine eyes. Immortalized Human Trabecular Meshwork cells (TM-1) were obtained through a kind gift from Donna Peters in the Department of Ophthalmology and Visual Sciences at the University of Wisconsin. Cells were plated onto fibronectin coated glass-bottom 96-well plates and allowed to attach overnight. Media was removed and replaced with test compound in media with 1% fetal bovine serum and incubated for various times. After incubation, cells were formaldehyde fixed, triton solubilized, and stained. PTM cells were stained with Alexa Fluor®488 phalloidin (F-actin) and Hoechst 33342 (nuclei). TM-1 cells were stained with anti-paxillin followed by Alexa Fluor®488 goat-anti-mouse IgG (focal adhesions) and Hoechst 33342 (nuclei). All staining reagents were obtained through Invitrogen. Images were collected on an INCell 2200 imager with a 20× objective. The actin fiber length and total area of focal adhesions were analyzed using custom algorithms developed in the INCell Developer Toolbox, v1.9.3. Data collected were converted to percent of control (untreated cells). Curves were fit to data in GraphPad Prizm using sigmoidal dose-response and constraining top and bottom to 100% and 0%, respectively.

[4] = molecular target: ROCK2 (Homo sapiens, UniProt O75116); test: biochemical
[5] = molecular target: ROCK1 (Homo sapiens, UniProt Q13464); test: ROCK kinase inhibition assay, ROCK1 enzyme; type: biochemical;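 further: kinase reaction with 0.5 µM final ATP, 75 min at room temperature, remaining ATP read by luminescence, percent of DMSO-only control minus background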
[6] = molecular target: JAK2 (Homo sapiens, UniProt O60674); test: JAK kinase assay, JAK2 enzyme; type: biochemical;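 further: JAK2 kinase reaction run 75 min at room temperature, leftover ATP read by Kinase-Glo luminescence, 11-point dilution series in 2.5% DMSO, percent of inhibitor-free DMSO control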
[7] = molecular target: Rho Kinase; test: ROCK kinase inhibition assay (Rho Kinase Activity, isoform not given); type: biochemical; settings: Table 15, mostly given as ranges
Experimental: All compounds were initially prepared as 10 mM stocks in anhydrous dimethylsulfoxide (DMSO). A 20 μl aliquot of the 10 mM solutions was transferred to individual wells in column 1 of a 96-well polypropylene microtiter plate (Corning #3363) and diluted with DMSO to give a final compound concentration of 4 mM. Test compounds were then serially diluted 1:5 in DMSO for an 11-point concentration response and further diluted in the assay buffer bringing all compound concentrations to a final range of 100 μM to […] in 2.5% DMSO. The assay was performed in white 96-well, flat-bottom, half-area, non-binding assay plate (Corning #3642) in assay buffer consisting of 20 mM HEPES (pH 7.5), 10 mM MgCl2*6H2O, 100 μM sodium orthovanadate, 0.05% CHAPS and 0.1% bovine serum albumin. A 10 μL aliquot of compound from each well of the intermediate dilution plate and 20 μL of a 2× substrate/enzyme solution containing acceptor substrate (800 nM RSK2 peptide […] (SEQ ID NO: 1)), ROCK2 enzyme (10 nM), or ROCK1 enzyme, and 1,4-Dithiothreitol (DTT, 2 uM) were added to all wells. The reaction was initiated by the addition of 10 μL of 4× stock solution ATP (2 μM). Reactions were thoroughly mixed manually, covered and allowed to incubate at room temperature for 75 min. Protein kinase activity was quantitated using Promega's KINASE-GLO™ luminescent Kinase Assay Kit according to the manufacturer's directions. ATP concentrations remaining in Test wells following the termination of the enzymatic reaction were compared against control wells containing equivalent amounts of DMSO containing no inhibitor (CTRL). […] Percent of Control (POC) values were determined for each concentration of compound tested according to the equation: POC=((Test well value−BKG)/(CTRL−BKG))*100
IC50 values were converted to K; […]

Chain of ROCK2 (O75116 whole entry, species assumed): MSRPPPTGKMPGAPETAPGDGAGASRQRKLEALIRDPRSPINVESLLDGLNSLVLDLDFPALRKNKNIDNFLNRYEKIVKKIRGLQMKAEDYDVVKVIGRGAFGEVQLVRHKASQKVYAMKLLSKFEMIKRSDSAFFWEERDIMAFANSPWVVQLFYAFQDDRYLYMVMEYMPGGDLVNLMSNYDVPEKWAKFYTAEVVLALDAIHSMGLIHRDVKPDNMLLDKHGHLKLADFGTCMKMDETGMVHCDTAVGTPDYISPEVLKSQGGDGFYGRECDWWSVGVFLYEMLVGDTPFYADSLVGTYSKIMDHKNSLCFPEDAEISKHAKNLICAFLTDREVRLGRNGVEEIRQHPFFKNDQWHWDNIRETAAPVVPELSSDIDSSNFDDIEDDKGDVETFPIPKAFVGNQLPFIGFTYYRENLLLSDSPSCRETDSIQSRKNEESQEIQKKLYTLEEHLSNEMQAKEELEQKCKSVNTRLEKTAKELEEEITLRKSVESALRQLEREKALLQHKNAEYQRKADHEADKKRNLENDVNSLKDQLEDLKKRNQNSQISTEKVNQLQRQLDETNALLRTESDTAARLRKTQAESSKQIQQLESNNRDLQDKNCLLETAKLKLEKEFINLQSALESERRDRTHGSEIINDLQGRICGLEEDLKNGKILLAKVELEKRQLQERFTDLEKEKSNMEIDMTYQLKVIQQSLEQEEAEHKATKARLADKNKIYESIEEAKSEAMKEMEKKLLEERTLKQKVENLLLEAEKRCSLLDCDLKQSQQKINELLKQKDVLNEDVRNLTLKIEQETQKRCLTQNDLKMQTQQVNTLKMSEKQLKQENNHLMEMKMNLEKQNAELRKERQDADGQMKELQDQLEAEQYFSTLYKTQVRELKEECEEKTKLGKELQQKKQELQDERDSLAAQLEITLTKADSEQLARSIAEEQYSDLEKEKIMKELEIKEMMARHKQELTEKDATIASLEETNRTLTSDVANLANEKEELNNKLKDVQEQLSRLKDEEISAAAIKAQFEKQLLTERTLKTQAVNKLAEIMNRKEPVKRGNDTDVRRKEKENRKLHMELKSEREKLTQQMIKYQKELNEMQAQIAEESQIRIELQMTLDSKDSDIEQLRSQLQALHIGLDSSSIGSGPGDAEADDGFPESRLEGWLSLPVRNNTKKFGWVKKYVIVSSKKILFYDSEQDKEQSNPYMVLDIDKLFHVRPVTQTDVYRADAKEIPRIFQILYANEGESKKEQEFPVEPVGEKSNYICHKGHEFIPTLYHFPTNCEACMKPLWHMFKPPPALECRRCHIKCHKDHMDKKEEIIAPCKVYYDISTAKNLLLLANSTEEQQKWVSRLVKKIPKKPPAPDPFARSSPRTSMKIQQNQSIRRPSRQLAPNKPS
Chain of JAK2 (O60674 whole entry, species assumed, canonical isoform): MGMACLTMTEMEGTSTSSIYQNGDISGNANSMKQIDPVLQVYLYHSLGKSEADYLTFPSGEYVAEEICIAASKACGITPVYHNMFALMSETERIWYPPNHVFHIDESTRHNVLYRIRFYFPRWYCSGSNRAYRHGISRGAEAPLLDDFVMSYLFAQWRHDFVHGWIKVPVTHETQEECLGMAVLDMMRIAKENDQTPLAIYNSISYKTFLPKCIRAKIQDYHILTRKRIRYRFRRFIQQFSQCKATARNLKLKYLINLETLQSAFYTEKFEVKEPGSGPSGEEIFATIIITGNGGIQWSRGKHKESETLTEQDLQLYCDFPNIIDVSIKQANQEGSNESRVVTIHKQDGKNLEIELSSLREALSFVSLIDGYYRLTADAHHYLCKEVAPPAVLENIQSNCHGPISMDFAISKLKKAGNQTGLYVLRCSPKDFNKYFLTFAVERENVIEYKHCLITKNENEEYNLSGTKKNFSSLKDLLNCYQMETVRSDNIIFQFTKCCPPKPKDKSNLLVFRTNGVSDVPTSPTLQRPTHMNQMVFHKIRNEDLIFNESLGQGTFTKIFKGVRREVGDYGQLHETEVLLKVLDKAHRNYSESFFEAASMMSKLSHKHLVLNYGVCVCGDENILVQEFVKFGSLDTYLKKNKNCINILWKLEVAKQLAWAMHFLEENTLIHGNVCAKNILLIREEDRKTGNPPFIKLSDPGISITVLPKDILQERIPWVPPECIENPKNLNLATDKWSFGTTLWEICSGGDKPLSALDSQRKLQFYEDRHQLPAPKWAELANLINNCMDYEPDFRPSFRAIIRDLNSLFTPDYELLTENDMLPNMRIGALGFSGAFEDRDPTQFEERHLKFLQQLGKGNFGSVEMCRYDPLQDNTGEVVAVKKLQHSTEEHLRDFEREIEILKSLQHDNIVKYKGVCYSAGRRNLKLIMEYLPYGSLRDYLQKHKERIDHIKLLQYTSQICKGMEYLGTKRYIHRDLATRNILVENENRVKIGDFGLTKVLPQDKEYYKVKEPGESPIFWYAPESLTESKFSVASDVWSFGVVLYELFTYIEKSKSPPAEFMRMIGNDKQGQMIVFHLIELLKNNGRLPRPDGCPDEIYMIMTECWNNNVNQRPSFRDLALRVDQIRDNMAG
Chain of ROCK1 (Q13464 whole entry, species assumed): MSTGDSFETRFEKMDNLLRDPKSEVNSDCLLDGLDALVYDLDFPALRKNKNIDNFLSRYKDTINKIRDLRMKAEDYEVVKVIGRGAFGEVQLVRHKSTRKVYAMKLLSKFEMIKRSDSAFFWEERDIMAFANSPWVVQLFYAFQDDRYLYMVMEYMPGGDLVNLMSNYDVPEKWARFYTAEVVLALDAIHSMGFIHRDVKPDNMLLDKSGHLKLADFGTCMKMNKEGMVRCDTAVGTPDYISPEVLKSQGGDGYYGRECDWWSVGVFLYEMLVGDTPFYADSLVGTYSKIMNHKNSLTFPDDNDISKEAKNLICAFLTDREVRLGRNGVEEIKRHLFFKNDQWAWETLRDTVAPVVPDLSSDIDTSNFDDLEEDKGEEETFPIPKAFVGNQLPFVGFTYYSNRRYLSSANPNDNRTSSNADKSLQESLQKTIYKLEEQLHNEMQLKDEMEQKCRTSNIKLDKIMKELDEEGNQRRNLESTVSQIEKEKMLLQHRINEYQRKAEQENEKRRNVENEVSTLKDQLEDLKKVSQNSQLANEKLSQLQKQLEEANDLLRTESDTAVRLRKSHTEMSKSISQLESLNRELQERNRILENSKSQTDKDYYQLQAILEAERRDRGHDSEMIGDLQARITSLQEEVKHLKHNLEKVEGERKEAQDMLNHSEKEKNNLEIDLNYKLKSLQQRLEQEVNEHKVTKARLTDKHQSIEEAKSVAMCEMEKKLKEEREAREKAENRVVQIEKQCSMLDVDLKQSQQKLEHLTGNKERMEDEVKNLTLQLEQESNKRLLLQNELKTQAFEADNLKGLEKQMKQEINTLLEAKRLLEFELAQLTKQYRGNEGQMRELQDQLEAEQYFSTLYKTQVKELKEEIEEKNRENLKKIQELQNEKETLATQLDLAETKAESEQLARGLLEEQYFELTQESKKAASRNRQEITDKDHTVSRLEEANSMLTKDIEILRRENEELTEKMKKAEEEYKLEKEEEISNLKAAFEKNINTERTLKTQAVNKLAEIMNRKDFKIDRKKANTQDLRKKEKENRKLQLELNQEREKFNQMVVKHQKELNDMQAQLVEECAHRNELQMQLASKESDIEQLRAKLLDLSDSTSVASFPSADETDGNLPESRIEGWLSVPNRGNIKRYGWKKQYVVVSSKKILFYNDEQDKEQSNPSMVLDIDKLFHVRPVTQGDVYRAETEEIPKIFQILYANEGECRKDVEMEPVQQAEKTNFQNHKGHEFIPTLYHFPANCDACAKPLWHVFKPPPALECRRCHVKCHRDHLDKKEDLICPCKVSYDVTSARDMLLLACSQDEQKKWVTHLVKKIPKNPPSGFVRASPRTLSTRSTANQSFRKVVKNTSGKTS

O=C(Nc1ccc2cnccc2c1)[C@@H]1C[C@H]1c1ccc(S(=O)(=O)Nc2ccccn2)cc1 (racemic)
pKi ([1]; Table 17, read-out: JAK3): 7.92

O=C(Nc1ccc2cncc(Cl)c2c1)C1CC1c1ccc(S(=O)(=O)Nc2ccccn2)cc1 (racemic) [rel-N-(4-chloroisoquinolin-6-yl)-2-(4-(N-(pyridin-2-yl)sulfamoyl)phenyl)cyclopropane-1-carboxamide]
pKi [2]: 8.05 | pIC50 ([3]; Table 17, porcine trabecular meshwork cells): 6.64

O=C(Nc1ccc2cncc(Cl)c2c1)[C@@H]1C[C@H]1c1ccc(S(=O)(=O)NC[C@@H]2CCCNC2)cc1 (relative stereo) [(rel)-(1R,2R)-N-(4-chloroisoquinolin-6-yl)-2-(4-(N-(((R)-piperidin-3-yl)methyl)sulfamoyl)phenyl)cyclopropane-1-carboxamide dihydrochloride]
pKi ([1]; Table 17, read-out: JAK3): 6.80

O=C(Nc1ccc2cnccc2c1)[C@@H]1C[C@H]1c1ccc(S(=O)(=O)NC[C@@H]2CCCNC2)cc1 (relative stereo) [(rel)-(1R,2R)-N-(isoquinolin-6-yl)-2-(4-(N-(((R)-piperidin-3-yl)methyl)sulfamoyl)phenyl) cyclopropane-1-carboxamide dihydrochloride]
pKi ([4]; ROCK2, Table 17): 8.40 | pKi ([5]; ROCK1, Table 17): 8.40 | pKi ([1]; Table 17, read-out: JAK3): 5.94

O=C(Nc1ccc2cnccc2c1)[C@@H]1C[C@H]1c1ccc(I)cc1 (relative stereo) [drawing 670, (rel)-(1R,2R)-2-(4-iodophenyl)-N-(isoquinolin-6-yl)cyclopropane-1-carboxamide]
pKi ([4]; ROCK2, Table 17): 6.76 | pKi ([5]; ROCK1, Table 17): 6.57 | pKi ([6]; Table 17, read-out: JAK2): 6.19

O=C(Nc1ccc2cnccc2c1)[C@@H]1C[C@H]1c1ccc(S(=O)(=O)Nc2ccccn2)cc1 (single isomer, unassigned) [Example E266]
pKi ([5]; ROCK1, Table 16): 8.05 | pKi ([1]; Table 16, read-out: JAK3): 7.92

O=C(Nc1ccc2cnccc2c1)[C@@H]1C[C@H]1c1ccc(S(=O)(=O)Nc2ccccn2)cc1 (single isomer, unassigned) [Example E267]
pKi ([1]; Table 16, read-out: JAK3): 8.24

O=C(Nc1ccc2cnccc2c1)[C@@H]1C[C@H]1c1ccc(S(=O)(=O)Nc2ccccn2)cc1 [(1R,2R)-N-(isoquinolin-6-yl)-2-(4-(N-(pyridin-2-yl)sulfamoyl)phenyl) cyclopropane-1-carboxamide]
pKi ([1]; Table 17, read-out: JAK3): 8.37 | pIC50 [3]: 7.21

O=C(NCc1ccccn1)c1ccc(C2CC(=O)N(c3ccc4cnccc4c3)C2)cc1 (centres unmarked) [Example E233]
pKi [7]: 5.08 to 5.36 | pKi ([6]; Table 15, in brackets in the activity cell, read-out: JAK2 activity): 4.87 to 5.24 | pKi ([1]; Table 15, in brackets in the activity cell, read-out: JAK3 activity): 5.42 to 5.47

O=C(Nc1ccc2cnccc2c1)[C@@H]1C[C@H]1c1ccc(S(=O)(=O)NC[C@H]2CCCNC2)cc1 [Example E272]
pKi ([4]; ROCK2, Table 16): 8.30 | pKi ([5]; ROCK1, Table 16): 8.30

O=C(Nc1ccc2cnccc2c1)[C@@H]1C[C@H]1c1ccc(S(=O)(=O)NC[C@@H]2CCCNC2)cc1 [Example E273]
pKi ([4]; ROCK2, Table 16): 8.40 | pKi ([5]; ROCK1, Table 16): 8.40 | pKi ([1]; Table 16, read-out: JAK3): 5.94

O=C(Nc1ccc2cncc(Cl)c2c1)[C@@H]1C[C@H]1c1ccc(S(=O)(=O)NC[C@@H]2CCCNC2)cc1 [Example E274]
pKi ([1]; Table 16, read-out: JAK3): 6.80

O=C(Nc1ccc2cnccc2c1)[C@@H]1C[C@H]1c1ccc(S(=O)(=O)NC2CCNCC2)cc1 [Example E275]
pKi ([4]; ROCK2, Table 16): 8.15 | pKi ([5]; ROCK1, Table 16): 8.09

O=C(Nc1ccc2cnccc2c1)[C@@H]1C[C@H]1c1ccc(S(=O)(=O)N2CCNCC2)cc1 [Example E276]
pKi ([4]; ROCK2, Table 16): 7.51 | pKi ([5]; ROCK1, Table 16): 7.32

O=C(Nc1ccc2cnccc2c1)[C@@H]1C[C@H]1c1ccc(I)cc1 [Example E277]
pKi ([4]; ROCK2, Table 16): 6.76 | pKi ([5]; ROCK1, Table 16): 6.57 | pKi ([6]; Table 16, read-out: JAK2): 6.19

O=C(Nc1ccc2cnccc2c1)[C@@H]1C[C@H]1c1ccc(F)c(S(=O)(=O)Nc2ccccn2)c1 [Example E280]
pKi ([4]; ROCK2, Table 16): 7.90 | pKi ([5]; ROCK1, Table 16): 7.82 | pKi ([6]; Table 16, read-out: JAK2): 5.85 | pKi ([1]; Table 16, read-out: JAK3): 5.97

O=C(Nc1ccc2cnccc2c1)[C@@H]1C[C@H]1c1ccc(F)c(S(=O)(=O)Nc2ccccc2)c1 [Example E281]
pKi ([4]; ROCK2, Table 16): 6.62 | pKi ([5]; ROCK1, Table 16): 6.82 | pKi ([6]; Table 16, read-out: JAK2): 5.52 | pKi ([1]; Table 16, read-out: JAK3): 5.12

O=C(Nc1ccc2cnccc2c1)[C@@H]1C[C@H]1c1ccc(S(=O)(=O)Nc2cccnc2)cc1 [drawing 658]
pKi ([4]; ROCK2, Table 17): 7.62 | pKi ([5]; ROCK1, Table 17): 7.07

O=C(Nc1ccc2cncc(Cl)c2c1)[C@@H]1C[C@H]1c1ccc(S(=O)(=O)NC[C@@H]2CCCNC2)cc1 [drawing 666]
pKi ([1]; Table 17, read-out: JAK3): 6.80

O=C(Nc1ccc2cnccc2c1)[C@@H]1C[C@H]1c1ccc(F)c(S(=O)(=O)Nc2ccccn2)c1 [drawing 673]
pKi ([4]; ROCK2, Table 17): 7.90 | pKi ([5]; ROCK1, Table 17): 7.82 | pKi ([6]; Table 17, read-out: JAK2): 5.85 | pKi ([1]; Table 17, read-out: JAK3): 5.97

O=C(Nc1ccc2cnccc2c1)[C@@H]1C[C@H]1c1ccc(F)c(S(=O)(=O)Nc2ccccc2)c1 [drawing 674]
pKi ([4]; ROCK2, Table 17): 6.62 | pKi ([5]; ROCK1, Table 17): 6.82 | pKi ([6]; Table 17, read-out: JAK2): 5.52 | pKi ([1]; Table 17, read-out: JAK3): 5.12
